Assay results published in US6683230B1, “Hybrid seed production” (Syngenta Limited, priority 1998, dated 2004).
Where two headings read alike, the source gives them in different places.

Columns and labels:
[1] = system: safener induced GST-27 promoter; experiment: Reversal of sterility in GST-27-barstar maize WU25 by safener; type: in vivo
Excerpt: The corn transformation vector Zm/RMS14 (described above) carries a barstar gene fused to the safener induced GST-27 promoter. WU25 was shown by PCR to contain this gene fusion. […] There was no effect of the safener on the size or fertility of tassels on non-transgenic fertile plants. […] The resumption of microspore development appears to be linked to the barstar inhibition of barnase thus overcoming the ablation of tapetal cells. […] In contrast, the anthers from sterile plants were collapsed.
The same promoter fragment was fused to barnase to generate the corn transformation vector ZM/RMS14 (FIG. 30). This fusion also contained an out of frame barstar gene with a functional bacterial promoter to provide protection against barnase during the cloning steps. Transgenic maize plants were obtained and several progressed for further analysis. One plant WU25 in particular was studied in some detail by analysing progeny derived from crosses with pollen from a fully fertile plant. All progeny inheriting the transgene as assessed by PCR and leaf paint to detect the pat gene were completely sterile, whereas progeny lacking the transgene were fully fertile. […] In all other respects sterile plants were indistinguishable from their fertile non-transgenic siblings.

lac repressor = details: tobacco protoplasts and stable transformants; cited from earlier work
AlcA promoter [2] = details: 0.1% (v/v) ethanol in medium, 3 weeks
Description: (§1) Flower material was ground in 2-300 μl of extraction buffer (100 mM sodium phosphate buffer pH 7, 10 mM EDTA, 0.1% Triton X-100, 1% Sarcosyl, 10 mM b-mercaptoethanol). Samples were spun in a microcentrifuge for 15 min and 5 μl of the supernatant was used for Bradford protein assays with BSA as standard. 20 μl was diluted 1 in 5 with extraction buffer and 400 μl of assay buffer (same for extraction buffer except contains 1 mM 4-MUG and 20% methanol). 100 μl was taken (T0 sample) and added to 900 μl of stop buffer (0.2M sodium carbonate) and the rest was incubated at 37° C. for two hours before taking a further 100 μl (T2 samples) to be added to 900 μl stop buffer.
(§2) Florescence of samples was measured in a spectrophotometer and GUS was represented as nM 4M U per mg protein per hour.

AlcA promoter [3] = system: AlcA promoter
Description: as §1, §2
(§3) For the GUS staining, the protocol of Blume and Grierson (1997) was used.

AlcA promoter [4] = system: AlcA promoter; remark: listed apart in the source
AlcA promoter [5] = details: ethanol vapour, 2-3 days
Description: Scutellum tissue is bombarded with pUIRN.AGS and the tissue exposed to ethanol vapour. […] Transgenic Alc-GUS plants obtained are grown to maturity and seed harvested, inducible GUS expression is determined on the progeny plants in the same way as described above for rice.
as §3

AlcA promoter [6] = system: AlcA promoter; remark: listed apart in the source
Excerpt: 1) Oilseed rape (OSR) AlcA-GUS plants were root drenched with 250m1 of either water, 1% or 2% ethanol both on day 0 and day 1. Flower samples from these plants were then taken two days after the first induction.
The first two bars in each section represent uninduced anther and uninduced stigma/style GUS levels respectively. Each bar represents three replicates with each replicate containing anthers from three different flowers or stigma/styles from eight different flowers or ovaries from six different flowers.
2) Oilseed rape Aic-GUS flowers were subjected to GUS staining following induction with ethanol.
as §1, §2, §3

AlcA promoter [7] = details: ethanol vapour, two days after induction
Excerpt: Alc-GUS tomoato flowers were induced using ethanol vapour as described above for tobacco flowers. Two days after induction, anthers and pollen were stained to detect GUS expression.
as §3

AlcA promoter [8] = details: after induction with ethanol

## CC1CN(C(=O)C(Cl)Cl)C(C)(C)O1 (centres unmarked) [R-29148]
[1]; extended treatment with safener
  microsporogenesis: anthers filled with immature post-mitotic pollen
[1]; foliar application, field grown plants
  microspore development and tassel size: A similar effect was seen
[1]; non-transgenic fertile plants
  size or fertility of tassels: no effect
[1]; root drench, glass house
  microspore development in anthers: microspore development was observed
[1]; root drench, glass house grown plants
  reversal of sterility: Reversal of sterility was demonstrated
[1]; treated vs untreated transgenic plants
  tassel size: increased tassel size relative to untreated plants

## CC(C)S[C@@H]1O[C@H](CO)[C@H](O)[C@H](O)[C@H]1O [IPTG]
Lac repressor
  repression of GUS expression by lac repressor: repression can be relieved

## CCO [ethanol]
AlcA promoter [2]
  GUS levels in callus: levels can be increased with the addition of ethanol
AlcA promoter [3]; cut flower stems in 1%, 2% or 5% ethanol, two days
  GUS in anthers: induced by ethanol in the anthers at levels above those seen in the water treated flowers
AlcA promoter [3]; root drench 250 ml 5% ethanol, two days
  GUS staining of pistils: induction of GUS in the pistils
AlcA promoter [3]; vapour from 50 ml of 5% ethanol in sealed bag, 3 days
  GUS in anthers: higher levels of GUS
AlcA promoter [4]; AlcA promoter
  concentration at which induction of GUS expression was observed: 7 ng/100 ml air
AlcA promoter [4]; in vivo
  toxicity to operators and environment: non-toxic to operators and to the environment
AlcA promoter [4]; root drench, aqueous spray or gas
  concentration at which the inducer is effective: 1%
AlcA promoter [5]
  GUS staining of bombarded scutellum tissue: numerous blue spots are seen
AlcA promoter [6]; 2% ethanol root drench
  GUS levels, all tissues examined: increase in GUS from both uninduced levels and from the water-treated control plant
AlcA promoter [6]; 5% ethanol treated plant vs water-treated
  GUS staining of pistils: induction of GUS in the female tissues
AlcA promoter [6]; cut flower stem in 5% ethanol, two days
  GUS staining of whole inflorescence: Blue staining is apparent in the filaments, sepals, petals and the stigma/style regions of the flower
AlcA promoter [6]; root drench 2% ethanol, two days
  GUS staining of pistil sections: induction of GUS throughout the pistil region
AlcA promoter [6]; root drench 250 ml 1% or 2% ethanol day 0 and day 1, sampled two days after first induction
  GUS levels in floral tissues: increase in GUS levels in floral tissues
AlcA promoter [6]; two days after root drench with 250 ml of 5% ethanol
  GUS staining of flower: reporter gene induction in the stigma/style region as well as the filaments
AlcA promoter [7]
  GUS staining of anthers and pollen: blue staining was observed in both tissues
AlcA promoter [8]
  reporter gene (CAT) levels in floral tissues: increase in reporter gene levels in floral tissues
